Laboratory results as given in ChEMBL document CHEMBL1828590 (J Med Chem, 2011).
The source made the active and inactive calls. The calls are words filed in the database; no cut-off is given here.

How the values were obtained:
[1] = target: Voltage-gated inwardly rectifying potassium channel KCNH2 (Homo sapiens, UniProt Q12809); test: Displacement of [3H]-dofetilide from human ERG receptor at 10 uM
[2] = target: Stromelysin-1 (Homo sapiens) (UniProt P08254); test: Inhibition of MMP3 at 10 uM
COLO 205 = test: Antiproliferative activity against human COLO205 cells after 96 hrs by celltiter 96 assay; format: functional, cell-based; details: COLO 205, 96 h
A2780 [3] = test: Antiproliferative activity against human A2780 cells after 96 hrs by celltiter 96 assay; format: functional, cell-based; details: A2780, 96 h
Histone deacetylase 5 = Histone deacetylase 5 (Homo sapiens, UniProt Q9UQL6)
Description: Competitive inhibition of HDAC5 using KI-104 as substrate by fluorescence assay

[4] = target: T1, Polyamine deacetylase HDAC10 (Homo sapiens, UniProt Q969S8)
T1 sequence (Q969S8 whole entry): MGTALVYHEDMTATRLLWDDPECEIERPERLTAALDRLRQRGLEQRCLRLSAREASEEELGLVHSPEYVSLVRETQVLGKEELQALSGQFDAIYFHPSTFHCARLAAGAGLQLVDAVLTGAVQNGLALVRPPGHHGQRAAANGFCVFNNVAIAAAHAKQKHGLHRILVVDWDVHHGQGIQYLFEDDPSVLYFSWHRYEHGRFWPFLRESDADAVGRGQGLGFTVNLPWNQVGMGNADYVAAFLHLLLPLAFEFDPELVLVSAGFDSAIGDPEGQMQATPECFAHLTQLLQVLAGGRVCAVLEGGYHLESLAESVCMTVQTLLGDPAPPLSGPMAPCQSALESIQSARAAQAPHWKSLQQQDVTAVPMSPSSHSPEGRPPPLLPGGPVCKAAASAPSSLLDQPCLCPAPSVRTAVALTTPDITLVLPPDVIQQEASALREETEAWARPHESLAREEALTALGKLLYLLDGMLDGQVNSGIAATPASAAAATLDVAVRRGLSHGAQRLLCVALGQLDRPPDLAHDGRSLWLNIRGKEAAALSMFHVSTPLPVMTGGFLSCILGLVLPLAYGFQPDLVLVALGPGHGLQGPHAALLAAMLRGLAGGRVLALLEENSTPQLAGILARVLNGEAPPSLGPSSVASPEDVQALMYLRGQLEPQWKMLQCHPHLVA
Description: Competitive inhibition of HDAC10 using KI-104 as substrate by fluorescence assay

[5] = Half life in mouse liver microsomes; format: ADME, Microsome; details: liver microsomes
[6] = Solubility of the compound in phosphate buffer at pH 4.5; format: physicochemical
[7] = Apparent permeability from basolateral to apical side of human Caco2 cells; format: ADME, cell-based; details: Caco-2
Cytochrome P450 2D6 = Cytochrome P450 2D6 (Homo sapiens, UniProt P10635); test: Inhibition of recombinant CYP2D6 after 30 mins by fluorescence assay; format: ADME
Cytochrome P450 2C9 = Cytochrome P450 2C9 (Homo sapiens, UniProt P11712); test: Inhibition of CYP2C9 in human liver microsomes by fluorescence assay; format: ADME, Microsome
[8] = AUC (0 to infinity) in nude BALB/c mouse at 10 mg/kg, iv; format: ADME, organism-based; set-up: time infinity, dose 10 mg/kg, route intravenous; details: plasma
[9] = Apparent oral clearance in nude BALB/c mouse at 50 mg/kg, po; format: ADME, organism-based; set-up: dose 50 mg/kg, route oral; details: in vivo
[10] = Oral bioavailability in nude BALB/c mouse at 50 mg/kg; format: ADME, organism-based; details: in vivo
Mus musculus [11] = test: Toxicity in nude BALB/c mouse xenografted with human HCT116 cells assessed as body weight loss at 100 mg/kg, po QD for 21 days measured on day 19; format: organism-based, HCT-116; set-up: dose 100 mg/kg, route oral; details: in vivo, 504 h
[12] = Oral bioavailability in Wistar rat at 10 mg/kg; format: ADME, organism-based; details: in vivo
[13] = Apparent oral clearance in Beagle dog at 2 mg/kg, iv; format: ADME, organism-based, Canis lupus familiaris; set-up: dose 2 mg/kg; details: in vivo
[14] = Terminal half life in Beagle dog at 10 mg/kg, po; format: ADME, organism-based, Canis lupus familiaris; set-up: dose 10 mg/kg, route oral; details: in vivo, read-out: beta t1/2 (converted)
[15] = Oral bioavailability in Beagle dog at 10 mg/kg; format: ADME, organism-based, Canis lupus familiaris; details: in vivo
[16] = Toxicity in po dosed athymic nu/nu Harlan mouse with xenografted human HCT116 cells assessed as maximum tolerated administered qd for 21 days; format: organism-based, HCT-116; details: in vivo
HCT-116 = test: Antitumor activity against human HCT116 cells xenografted in nude BALB/c mouse assessed as tumor growth inhibition at 50 mg/kg, po qd for 21 days; format: functional; details: HCT-116, 504 h, read-out: TGI
Ramos = test: Antiproliferative activity against human Ramos cells; format: functional, cell-based
A2780 [17] = test: Antitumor activity against human A2780 cells xenografted in nude BALB/c mouse assessed as tumor growth inhibition at 100 mg/kg, po qd for 21 days measured on day 9; format: functional; details: read-out: TGI
Mus musculus [18] = test: Toxicity in nude BALB/c mouse xenografted with human A2780 cells assessed as mortality at 100 mg/kg, po QD for 21 days measured on day 9; format: organism-based; set-up: dose 100 mg/kg, route oral; details: in vivo, 504 h
PC-3 = test: Antitumor activity against human PC3 cells xenografted in nude BALB/c mouse assessed as tumor growth inhibition at 50 mg/kg, po qd for 21 days measured on day 22; format: functional; details: read-out: TGI
Mus musculus [19] = test: Toxicity in nude BALB/c mouse xenografted with human PC3 cells assessed as maximum body weight loss at 50 mg/kg, po QD for 21 days measured on day 17; format: organism-based, PC-3; set-up: dose 50 mg/kg, route oral; details: in vivo, 504 h
Mus musculus [20] = test: Toxicity in nude BALB/c mouse xenografted with human PC3 cells assessed as mortality at 50 mg/kg, po QD for 21 days measured on day 22; format: organism-based, PC-3; set-up: dose 50 mg/kg, route oral; details: in vivo, 504 h
MV4-11 = test: Antitumor activity against human MV4-11 cells xenografted in nude BALB/c mouse assessed as tumor growth inhibition at 50 mg/kg, po qd for 21 days measured on day 21; format: functional; details: MV4-11, 504 h, read-out: TGI
Histone deacetylase 3 = Histone deacetylase 3 (Homo sapiens, UniProt O15379)
Description: Competitive inhibition of HDAC3 using KI-104 as substrate by fluorescence assay

Histone deacetylase 8 = target: T2, Histone deacetylase 8 (Homo sapiens, UniProt Q9BY41)
T2 sequence (Q9BY41 whole entry): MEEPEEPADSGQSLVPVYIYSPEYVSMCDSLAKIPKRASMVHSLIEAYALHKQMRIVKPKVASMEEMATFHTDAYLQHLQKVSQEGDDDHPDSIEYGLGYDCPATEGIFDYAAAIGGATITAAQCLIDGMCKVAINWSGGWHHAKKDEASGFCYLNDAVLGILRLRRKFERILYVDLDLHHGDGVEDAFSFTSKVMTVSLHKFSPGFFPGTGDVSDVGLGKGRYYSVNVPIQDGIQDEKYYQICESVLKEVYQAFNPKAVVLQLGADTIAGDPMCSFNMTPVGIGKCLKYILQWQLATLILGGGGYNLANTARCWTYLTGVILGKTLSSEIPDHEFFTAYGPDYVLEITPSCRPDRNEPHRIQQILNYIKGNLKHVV
Description: Competitive inhibition of HDAC8 using KI-104 as substrate by fluorescence assay

Cytochrome P450 3A4 [21] = target: T3, Cytochrome P450 3A4 (Homo sapiens, UniProt P08684); test: Inhibition of recombinant CYP3A4 after 30 mins by fluorescence assay; format: ADME
Histone deacetylase 1 = Histone deacetylase 1 (Homo sapiens, UniProt Q13547)
Description: Inhibition of full length recombinant HDAC1 using Fluor de Lys as substrate by fluorescence assay

Cytochrome P450 3A4 [22] = target: T3, Cytochrome P450 3A4; test: Inhibition of CYP3A4 in human liver microsomes

T3 sequence (P08684 whole entry): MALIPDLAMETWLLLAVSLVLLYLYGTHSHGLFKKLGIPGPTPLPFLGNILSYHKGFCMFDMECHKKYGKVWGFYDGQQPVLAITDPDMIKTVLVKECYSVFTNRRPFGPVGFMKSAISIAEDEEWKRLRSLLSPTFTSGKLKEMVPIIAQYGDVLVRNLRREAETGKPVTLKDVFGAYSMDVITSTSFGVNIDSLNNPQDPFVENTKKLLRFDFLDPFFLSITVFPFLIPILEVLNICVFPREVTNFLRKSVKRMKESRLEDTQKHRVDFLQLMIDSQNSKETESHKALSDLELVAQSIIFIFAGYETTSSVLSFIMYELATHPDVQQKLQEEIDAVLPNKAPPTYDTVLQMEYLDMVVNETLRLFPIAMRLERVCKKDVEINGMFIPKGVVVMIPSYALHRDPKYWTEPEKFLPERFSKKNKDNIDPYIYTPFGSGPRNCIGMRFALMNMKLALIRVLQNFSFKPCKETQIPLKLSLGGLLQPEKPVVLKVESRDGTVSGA
Chain of Cytochrome P450 2D6 (P10635 whole entry): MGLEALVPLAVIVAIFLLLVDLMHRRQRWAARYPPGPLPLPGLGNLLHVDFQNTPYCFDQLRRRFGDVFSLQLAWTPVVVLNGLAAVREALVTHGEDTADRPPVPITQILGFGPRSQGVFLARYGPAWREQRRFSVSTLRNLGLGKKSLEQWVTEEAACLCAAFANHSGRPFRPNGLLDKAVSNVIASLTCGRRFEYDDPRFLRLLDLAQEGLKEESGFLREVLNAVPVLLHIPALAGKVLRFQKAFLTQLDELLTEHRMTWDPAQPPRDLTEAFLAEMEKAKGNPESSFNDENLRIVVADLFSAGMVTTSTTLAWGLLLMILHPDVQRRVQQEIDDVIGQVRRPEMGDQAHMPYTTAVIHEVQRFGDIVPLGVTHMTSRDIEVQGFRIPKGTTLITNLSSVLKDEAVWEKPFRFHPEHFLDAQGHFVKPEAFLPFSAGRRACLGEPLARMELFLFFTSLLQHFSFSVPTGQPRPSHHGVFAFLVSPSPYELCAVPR
Chain of Cytochrome P450 2C9 (P11712 whole entry): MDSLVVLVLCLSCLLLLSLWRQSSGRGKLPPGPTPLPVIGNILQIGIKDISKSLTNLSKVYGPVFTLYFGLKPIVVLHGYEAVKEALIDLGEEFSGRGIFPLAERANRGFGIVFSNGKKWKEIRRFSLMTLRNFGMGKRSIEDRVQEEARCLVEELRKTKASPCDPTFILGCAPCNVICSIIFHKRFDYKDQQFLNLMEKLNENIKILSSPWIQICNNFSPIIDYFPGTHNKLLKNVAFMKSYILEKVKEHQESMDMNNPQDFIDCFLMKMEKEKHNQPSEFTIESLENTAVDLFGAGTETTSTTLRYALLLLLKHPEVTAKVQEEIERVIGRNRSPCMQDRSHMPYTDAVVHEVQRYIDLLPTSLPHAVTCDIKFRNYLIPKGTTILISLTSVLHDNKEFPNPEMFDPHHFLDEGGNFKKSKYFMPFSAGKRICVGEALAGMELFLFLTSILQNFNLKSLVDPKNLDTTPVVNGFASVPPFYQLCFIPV
Chain of Histone deacetylase 5 (Q9UQL6 whole entry): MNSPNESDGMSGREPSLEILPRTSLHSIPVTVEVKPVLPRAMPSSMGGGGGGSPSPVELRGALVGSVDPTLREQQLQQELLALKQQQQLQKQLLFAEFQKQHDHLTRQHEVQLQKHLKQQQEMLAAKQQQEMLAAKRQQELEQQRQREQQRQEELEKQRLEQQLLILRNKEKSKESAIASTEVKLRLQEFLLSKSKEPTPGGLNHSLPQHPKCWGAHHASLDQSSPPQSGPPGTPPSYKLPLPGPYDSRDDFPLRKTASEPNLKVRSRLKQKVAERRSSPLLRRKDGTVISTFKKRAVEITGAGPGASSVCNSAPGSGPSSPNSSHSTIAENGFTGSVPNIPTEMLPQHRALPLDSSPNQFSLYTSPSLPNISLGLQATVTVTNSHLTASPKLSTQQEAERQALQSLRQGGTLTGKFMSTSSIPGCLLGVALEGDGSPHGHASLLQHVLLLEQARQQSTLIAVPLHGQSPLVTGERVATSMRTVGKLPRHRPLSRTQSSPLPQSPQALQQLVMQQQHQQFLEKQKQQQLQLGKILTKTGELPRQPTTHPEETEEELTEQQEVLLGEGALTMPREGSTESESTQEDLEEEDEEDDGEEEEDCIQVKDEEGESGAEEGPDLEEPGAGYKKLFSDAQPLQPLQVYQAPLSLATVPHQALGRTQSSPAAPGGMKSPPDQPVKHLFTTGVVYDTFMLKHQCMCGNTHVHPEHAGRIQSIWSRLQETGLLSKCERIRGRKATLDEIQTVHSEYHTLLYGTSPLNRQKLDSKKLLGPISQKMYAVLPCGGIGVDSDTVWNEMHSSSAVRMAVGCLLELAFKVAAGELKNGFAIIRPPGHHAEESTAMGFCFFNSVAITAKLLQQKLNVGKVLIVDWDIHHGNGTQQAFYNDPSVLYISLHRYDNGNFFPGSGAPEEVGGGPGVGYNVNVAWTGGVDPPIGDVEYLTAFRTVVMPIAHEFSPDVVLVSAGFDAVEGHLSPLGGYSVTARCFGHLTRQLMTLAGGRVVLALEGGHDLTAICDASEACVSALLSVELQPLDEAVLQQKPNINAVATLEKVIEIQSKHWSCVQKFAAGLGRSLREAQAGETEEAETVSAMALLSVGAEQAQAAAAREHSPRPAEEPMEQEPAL
Chain of Histone deacetylase 1 (Q13547 whole entry): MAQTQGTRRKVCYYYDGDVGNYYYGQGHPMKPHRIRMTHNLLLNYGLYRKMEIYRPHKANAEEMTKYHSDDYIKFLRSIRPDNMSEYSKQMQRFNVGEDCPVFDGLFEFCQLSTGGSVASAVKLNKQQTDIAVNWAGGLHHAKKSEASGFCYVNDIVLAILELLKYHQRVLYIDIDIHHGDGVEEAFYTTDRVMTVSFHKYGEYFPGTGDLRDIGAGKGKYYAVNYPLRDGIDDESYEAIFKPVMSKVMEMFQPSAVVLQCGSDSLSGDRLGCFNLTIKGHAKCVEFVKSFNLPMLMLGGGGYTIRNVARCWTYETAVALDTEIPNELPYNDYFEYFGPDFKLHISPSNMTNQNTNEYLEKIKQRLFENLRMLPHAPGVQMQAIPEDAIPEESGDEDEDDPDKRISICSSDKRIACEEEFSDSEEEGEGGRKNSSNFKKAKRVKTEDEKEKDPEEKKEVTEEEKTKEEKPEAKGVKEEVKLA
Chain of Histone deacetylase 3 (O15379 whole entry): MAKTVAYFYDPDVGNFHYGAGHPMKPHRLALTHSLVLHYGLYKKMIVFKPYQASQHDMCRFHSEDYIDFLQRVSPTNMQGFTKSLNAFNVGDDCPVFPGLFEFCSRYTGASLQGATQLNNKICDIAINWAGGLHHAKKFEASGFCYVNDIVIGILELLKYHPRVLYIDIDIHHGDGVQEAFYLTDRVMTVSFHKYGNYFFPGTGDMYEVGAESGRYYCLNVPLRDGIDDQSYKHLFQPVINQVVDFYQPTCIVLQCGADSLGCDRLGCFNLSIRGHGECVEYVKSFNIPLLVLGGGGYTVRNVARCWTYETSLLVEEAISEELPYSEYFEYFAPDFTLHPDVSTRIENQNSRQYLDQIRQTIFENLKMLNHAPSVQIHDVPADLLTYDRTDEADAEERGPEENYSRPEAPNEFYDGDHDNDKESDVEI
Chain of Voltage-gated inwardly rectifying potassium channel KCNH2 (Q12809 whole entry): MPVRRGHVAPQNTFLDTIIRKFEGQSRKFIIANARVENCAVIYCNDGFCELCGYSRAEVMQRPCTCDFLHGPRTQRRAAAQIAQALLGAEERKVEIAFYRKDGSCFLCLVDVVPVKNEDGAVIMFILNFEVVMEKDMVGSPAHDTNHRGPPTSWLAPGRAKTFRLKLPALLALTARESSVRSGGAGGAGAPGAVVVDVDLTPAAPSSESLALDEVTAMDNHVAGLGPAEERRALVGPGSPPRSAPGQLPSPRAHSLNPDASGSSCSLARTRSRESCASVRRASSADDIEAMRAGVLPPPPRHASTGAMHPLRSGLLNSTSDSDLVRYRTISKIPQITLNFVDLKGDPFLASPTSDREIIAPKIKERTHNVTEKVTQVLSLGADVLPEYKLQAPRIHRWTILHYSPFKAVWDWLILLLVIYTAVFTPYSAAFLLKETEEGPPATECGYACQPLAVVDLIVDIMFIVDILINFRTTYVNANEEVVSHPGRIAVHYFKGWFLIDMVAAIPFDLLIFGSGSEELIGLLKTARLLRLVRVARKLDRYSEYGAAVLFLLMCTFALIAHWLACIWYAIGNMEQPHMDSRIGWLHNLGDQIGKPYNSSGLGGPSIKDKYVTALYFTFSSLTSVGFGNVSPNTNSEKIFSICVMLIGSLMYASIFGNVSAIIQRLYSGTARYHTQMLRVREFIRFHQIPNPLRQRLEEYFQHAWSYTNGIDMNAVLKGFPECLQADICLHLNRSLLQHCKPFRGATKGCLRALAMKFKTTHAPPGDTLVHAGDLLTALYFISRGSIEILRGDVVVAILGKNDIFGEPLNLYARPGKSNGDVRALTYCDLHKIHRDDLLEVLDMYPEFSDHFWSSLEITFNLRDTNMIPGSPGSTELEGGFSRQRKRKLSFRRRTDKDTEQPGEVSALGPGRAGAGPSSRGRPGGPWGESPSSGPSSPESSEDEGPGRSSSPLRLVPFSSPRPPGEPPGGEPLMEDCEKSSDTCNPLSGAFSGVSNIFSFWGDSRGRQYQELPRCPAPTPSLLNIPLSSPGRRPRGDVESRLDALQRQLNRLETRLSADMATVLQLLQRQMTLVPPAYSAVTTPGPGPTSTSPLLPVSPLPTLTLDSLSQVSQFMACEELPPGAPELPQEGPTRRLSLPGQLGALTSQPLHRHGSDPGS

Row | Structure (SMILES) | IC50 (COLO 205) | IC50 (A2780 [3]) | Ki (Histone deacetylase 5) | Ki [4] | IC50 (Cytochrome P450 2D6) | IC50 (Cytochrome P450 2C9) | bioavailability [10] | bioavailability [12] | bioavailability [15] | MTD at 504 h [16] | Ki (Histone deacetylase 3) | Ki (Histone deacetylase 8) | IC50 (Cytochrome P450 3A4 [21]) | IC50 (Histone deacetylase 1) | IC50 (Cytochrome P450 3A4 [22]) | further results
1 | CCCCc1nc2cc(/C=C/C(=O)NO)ccc2n1CCN(CC)CC.Cl.Cl | 560 nM | 480 nM | 21 nM | 23 nM | > 10000 nM | > 25000 nM | 34% | 3.1% | 65% | 50 mg/kg | – | – | – | – | – | inhibition (INH) [1]: Not Active; inhibition [2]: inactive; half-life [5]: 0.45 h; solubility [6]: > 50 mg/mL; Papp B→A [7]: 19.4 ×10⁻⁶ cm/s; AUC(0-inf) [8]: 2.52 µM·h; CL/F [9]: 453 mL/min/kg; Activity (Mus musculus [11]): 14.6%; CL/F [13]: 24.2 mL/min/kg; half-life [14]: 4.12 h; inhibition in vivo at 50 mg/kg (HCT-116): 66%; IC50 (Ramos): 140 nM; inhibition in vivo at 100 mg/kg (A2780 [17]): 63%; Activity (Mus musculus [18]): Non-toxic; inhibition in vivo at 50 mg/kg (PC-3): 66%; Activity (Mus musculus [19]): 7.7%; Activity (Mus musculus [20]): Non-toxic; inhibition in vivo at 50 mg/kg (MV4-11): 114%
2 | CCCCCCc1nc2cc(/C=C/C(=O)NO)ccc2n1CCN(C)C | 330 nM | 230 nM | 9.2 nM | 13 nM | 3170 nM | 10400 nM | – | – | – | 200 mg/kg | 20 nM | 136 nM | 330 nM | 28 nM | > 25000 nM | –
3 | CN(C)CC(C)(C)Cn1c(CC(C)(C)C)nc2cc(/C=C/C(=O)NO)ccc21 | 570 nM | 440 nM | 11 nM | 34 nM | > 10000 nM | > 25000 nM | 51% | 4% | 110% | – | 20 nM | 65 nM | 2280 nM | 46 nM | > 25000 nM | –
